Where no end group is shown, it is not given here.
What was measured:
CCD-18Co fibroblasts = assay: Elafin exposure of serum-starved CCD-18Co fibroblasts (Example 1); assay type: cell-based, human; conditions: elafin 0.1-3 μg/ml, 24 hours, no TGF-β1
Description: FIG. 6. Elafin promotes fibrogenesis in human colonic fibroblasts. (A) The human colonic CCD-18Co fibroblasts were incubated with 100 μl/ml (10%) of human sera from normal, stricturing CD, and non-stricturing CD patients in serum-free DMEM for 24 hours. (B) The human colonic CCD-18Co fibroblasts were incubated with 100 μl/ml (10%) of human sera from high elafin CD group (>8000 pg/ml) and low elafin CD group (<8000 pg/ml) in serum-free DMEM for 24 hours. (C) Serum-starved CCD-18Co fibroblasts were pretreated with 15 μg/ml of anti-elafin neutralizing antibody or control antibody for 30 minutes, followed by exposure to (100 μl/ml) human sera from normal and stricturing CD patients for 24 hours. Six serum donors per group. (D) Serum-starved CCD-18Co fibroblasts were exposed to elafin (0.1-3 μg/ml) for 24 hours. Pro-COL1A1 protein levels in cell lysates were determined by ELISA. (E) Serum-starved primary human intestinal fibroblasts from CD patients were exposed to elafin for 24 hours. mRNA expression was determined by real-time RT-PCR.
Human CCD-18Co intestinal fibroblasts (ATCC) (2×10^6 cells/plate) were cultured in minimal essential medium Eagle's medium (MEM) containing 10% fetal bovine serum (FBS) and 1% penicillin-streptomycin (P/S) (Invitrogen). […]

ERK1/2 phosphorylation = assay: Phospho-ERK1/2 ELISA in CCD-18Co fibroblasts; assay type: cell-based, human
Description: FIG. 27. Elafin inhibited ERK1/2 phosphorylation in intestinal fibroblasts via PAR2. (A) Serum starved CCD-18Co and primary stricturing CD patient-derived colonic fibroblasts were transiently transfected with either control siRNA or ZEB1 siRNA overnight, followed by treatment with 10 ng/ml TGF-β1 or 100 μg/ml stricturing CD patient-derived serum exosomes (CDSE) for 24 hours. (B) CCD-18Co fibroblasts were treated with DMSO, PAR1 inhibitor (SCH79797), or PAR2 inhibitor (GB88) for 2 hours. GB88 inhibited ERK1/2 phosphorylation. (C) CCD-18Co fibroblasts were pretreated with DMSO, PAR1 agonist, or PAR2 agonists for 30 minutes, followed by TGF-β1 10 ng/ml. Two hours later, elafin (1 μg/ml) and incubated for 2 hours. Elafin inhibited ERK1/2 phosphorylation, which was reversed by PAR2 agonist. […] Phospho-ERK1/2, ProCOL1A1, COL1A2, and ZEB1 protein were determined by ELISA. miR205-5p expression was determined by real-time RT-PCR. […]
FIG. 28. […] (D) Quantification of cathepsin S signals (B7-8) and control signals (A1-2 and E1-2) on the protease array using Bio-Rad Image Lab Software. […] Phospho-ERK1/2 was determined by ELISA. […] ProCOL1A1 and COL1A2 were determined by ELISA. […]

Substance	pro-collagen 1A1 protein expression (CCD-18Co fibroblasts)	ERK1/2 phosphorylation (ERK1/2 phosphorylation; CCD-18Co fibroblasts)	effect on elafin-mediated inhibition of ERK1/2 phosphorylation (ERK1/2 phosphorylation; elafin 1 μg/ml, 2 hours)
Elafin: small (6 kDa) human elastase-specific protease inhibitor and antimicrobial peptide; active form SEQ ID NO: 2 (AQEPVKGPVSTKPGSCPIILIRCAMLNPPNRCLKDTDCPGIKKCCEGSCGMACFVPQ; listed as Homo sapiens)	significantly increased	inhibited	–
SLIGKV-NH2 [PAR2 agonist, reference compound]	–	–	reversed
